Our source for the LD50 values is patent US4711889A, “Schistosomicidal acridanone hydrazones” (Hoffman-La Roche Inc., priority 1986, dated 1987).

Each structure is given as a SMILES string. Counter-ions that a name gives are not always drawn.

The nature of this series: acute toxicity, single oral administration to mice. The settings on record: mouse, in vivo. From the text: The following Table contains the results obtained with representative compounds of the invention. In the Table there are given for each of listed compounds, the VD50 in mg/kg p.o. and the LD50 in mg/kg single oral administration to mice.
As for `CCN(CC)CCn1c2ccccc2c(=NNc2nccs2)c2ccccc21.Cl.Cl` [10-[2-(diethylamino)ethyl]-9-acridanone (2-thiazolyl)hydrazone dihydrochloride], the 50% lethal dose (LD50) (in general, the dose expected to kill half of the subjects tested) was greater than 5000 mg/kg. The result for `c1ccc2c(c1)c(=NN=C1NCCS1)c1ccccc1n2CCN1CCCC1` [10-[2-(1-pyrrolidinyl)ethyl]-9-acridanone (2-thiazolidinylidene)hydrazone] reads 156 to 312 mg/kg; that for `CN(C)CCn1c2ccccc2c(=NNc2nccs2)c2ccccc21.Cl.Cl` [10-[2-(dimethylamino)ethyl]-9-acridanone (2-thiazolyl)hydrazone dihydrochloride], 312 to 625 mg/kg; that for `CN(C)CCCn1c2ccccc2c(=NNc2nccs2)c2ccccc21.Cl.Cl` [10-[3-(dimethylamino)propyl]-9-acridanone (2-thiazolyl)hydrazone dihydrochloride], 312 to 625 mg/kg. For the compound `c1ccc2c(c1)c(=NNc1nccs1)c1ccccc1n2CCN1CCCCC1` [10-[2-(1-piperidinyl)ethyl]-9-acridanone (2-thiazolyl)hydrazone 1.5 HCl], the LD50 lay in the range of 312 to 625 mg/kg. Under `CC(=O)N1CCN(CCn2c3ccccc3c(=NNc3nccs3)c3ccccc32)CC1.Cl.Cl` [10-[2-(4-acetyl-1-piperazinyl)ethyl]-9-acridanone (2-thiazolyl)hydrazone dihydrochloride] stands 312 to 625 mg/kg; under `Cl.Cl.NCCn1c2ccccc2c(=NNc2nccs2)c2ccccc21` [10-(2-aminoethyl)-9-acridanone 2-thiazolylhydrazone dihydrochloride], 156 to 312 mg/kg. The result for `CN1CCN(CCn2c3ccccc3c(=NN=C3NCCS3)c3ccccc32)CC1` [10-[2-(4-methyl-1-piperazinyl)ethyl]-9-acridanone (2-thiazolidinylidene)hydrazone] reads 156 to 312 mg/kg; that for `CC(=O)N1CCN(CCn2c3ccccc3c(=NN=C3NCCS3)c3ccccc32)CC1` [10-[2-(4-acetyl-1-piperazinyl)ethyl]-9-acridanone (2-thiazolidinylidene)hydrazone], 1250 to 2500 mg/kg. Under `CN(C)CCCn1c2ccccc2c(=NN=C2NCCS2)c2ccccc21` [10-[3-(dimethylamino)propyl]-9-acridanone (2-thiazolidinylidene)hydrazone] stands 125 to 250 mg/kg. `CCN(CC)CCn1c2ccccc2c(=NN=C2NCCS2)c2ccccc21` [10-[2-(diethylamino)ethyl]-9-acridanone (2-thiazolidinylidene)hydrazone]: the median lethal dose (LD50) was 312 to 625 mg/kg. Under `CN(C)CCn1c2ccccc2c(=NN=C2NCCS2)c2ccccc21` [10-[2-(dimethylamino)ethyl]-9-acridanone (2-thiazolidinylidene)hydrazone] stands 250 to 500 mg/kg; under `CN1CCN(CCn2c3ccccc3c(=NNc3nccs3)c3ccccc32)CC1` [10-[2-(4-methyl-1-piperazinyl)ethyl]-9-acridanone (2-thiazolyl)hydrazone. 2.5 HCl], 625 to 1250 mg/kg.
